Drawing on patent US9370515B2, “Mixed lineage kinase inhibitors and method of treatments” (CALIFIA BIO, INC., priority 2013, dated 2016), this text covers IC50 for 26 compounds.

Where only a bound is given, the exact number is not on record here.

What is called IC50 is the concentration needed to halve the response being measured. A low value points to higher potency.

Chain of MLK-3 (Q16584 whole entry): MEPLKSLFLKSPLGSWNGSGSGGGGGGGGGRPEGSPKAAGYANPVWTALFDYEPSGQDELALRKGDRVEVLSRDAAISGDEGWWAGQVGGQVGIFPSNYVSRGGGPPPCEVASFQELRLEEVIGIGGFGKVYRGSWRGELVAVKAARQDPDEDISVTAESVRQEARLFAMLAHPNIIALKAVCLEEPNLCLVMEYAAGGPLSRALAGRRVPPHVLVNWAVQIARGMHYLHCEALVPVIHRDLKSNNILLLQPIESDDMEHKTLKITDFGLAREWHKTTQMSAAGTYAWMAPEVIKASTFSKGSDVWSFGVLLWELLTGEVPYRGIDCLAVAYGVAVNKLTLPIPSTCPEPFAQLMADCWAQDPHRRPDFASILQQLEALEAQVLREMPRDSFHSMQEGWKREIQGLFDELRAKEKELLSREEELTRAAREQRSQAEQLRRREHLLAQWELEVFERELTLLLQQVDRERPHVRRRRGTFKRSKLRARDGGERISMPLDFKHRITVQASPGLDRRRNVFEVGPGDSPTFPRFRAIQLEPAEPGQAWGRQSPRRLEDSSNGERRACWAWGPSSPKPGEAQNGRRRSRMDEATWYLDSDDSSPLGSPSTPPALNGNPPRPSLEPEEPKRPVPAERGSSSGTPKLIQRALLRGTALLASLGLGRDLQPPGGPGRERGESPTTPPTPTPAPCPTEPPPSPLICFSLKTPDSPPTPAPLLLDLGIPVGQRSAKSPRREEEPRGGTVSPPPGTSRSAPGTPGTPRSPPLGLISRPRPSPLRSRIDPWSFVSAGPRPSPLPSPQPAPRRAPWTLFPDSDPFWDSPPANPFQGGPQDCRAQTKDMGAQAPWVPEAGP

This assay addresses MLK-3 (Homo sapiens, UniProt Q16584). Kind of assay: Biochemical assay for the inhibition of kinase activity for MLK-3 (33P-ATP, HOTSPOT filter binding). To be noted: activated MLK-3 20 nM, ATP 50 μM, myelin basic protein 20 μM, 20 minutes room temperature. The procedure, abridged: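 Activated MLK-3 (20 nM) with myelin basic protein (20 μM) in 20 mM Hepes pH 7.5, MgCl2, EGTA, Brij35, BSA, Na3VO4, DTT, 1% DMSO. Started with 33P-ATP at 50 μM ATP, 20 min at room temperature; % activity by HOTSPOT filter binding.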
Regarding `COc1ccc(Nc2ccc3ncc(-c4cc5cccc(OC(F)F)c5s4)n3n2)cc1OC` [Compound 187, 3-(7-(difluoromethoxy)benzo[b]thiophen-2-yl)-N-(3,4-dimethoxyphenyl)imidazo[1,2-b]pyridazin-6-amine], the IC50 was 500 to 1000 nM.
`COc1ccc(Nc2ccc3ncc(-c4cc5cccc(OC(F)(F)F)c5s4)n3n2)cc1OC` [Compound 188, N-(3,4-dimethoxyphenyl)-3-(7-(trifluoromethoxy)benzo[b]thiophen-2-yl)imidazo[1,2-b]pyridazin-6-amine] showed an IC50 of less than 5000 nM.
In the case of `COc1cc(Nc2ccc3ncc(-c4cc5cccc(OC(F)(F)F)c5s4)n3n2)ccc1OC(F)F` [Compound 189, N-(4-(difluoromethoxy)-3-methoxyphenyl)-3-(7-(trifluoromethoxy)benzo[b]thiophen-2-yl)imidazo[1,2-b]pyridazin-6-amine] it was less than 5000 nM; in that of `COc1cc(Nc2ccc3ncc(-c4cc5cccc(OC(F)(F)F)c5s4)n3n2)ccc1OC(F)(F)F` [Compound 190, N-(3-methoxy-4-(trifluoromethoxy)phenyl)-3-(7-(trifluoromethoxy)benzo[b]thiophen-2-yl)imidazo[1,2-b]pyridazin-6-amine], less than 5000 nM; in that of `COc1ccc(Nc2ccc3ncc(-c4cc5cc(C)ccc5s4)n3n2)cc1OC` [Compound 191, N-(3,4-dimethoxyphenyl)-3-(5-methylbenzo[b]thiophen-2-yl)imidazo[1,2-b]pyridazin-6-amine], less than 5000 nM.
Regarding `Cc1ccc2sc(-c3cnc4ccc(N[C@H]5CC[C@H](O)CC5)nn34)cc2c1` [Compound 192, trans-4-(3-(5-methylbenzo[b]thiophen-2-yl)imidazo[1,2-b]pyridazin-6-ylamino)cyclohexanol], the IC50 was 500 to 1000 nM.
As to `COc1ccc2c(c1)cc(-c1cnc3ccc(Nc4ccc(OC)c(OC)c4)nn13)n2C` [Compound 193, 3-(5-methoxy-1-methyl-1H-indol-2-yl)-N-(3,4-dimethoxyphenyl)imidazo[1,2-b]pyridazin-6-amine], the IC50 was less than 5000 nM.
The compound `COc1ccc2c(c1)cc(-c1cnc3ccc(N[C@H]4CC[C@H](O)CC4)nn13)n2C` [Compound 194, trans-4-(3-(5-methoxy-1-methyl-1H-indol-2-yl)imidazo[1,2-b]pyridazin-6-ylamino)cyclohexanol] displayed a concentration for half-maximal inhibition (IC50) of less than 5000 nM.
For the compound `COc1ccc(Nc2ccc3ncc(-c4cc5cccc(C)c5[nH]4)n3n2)cc1OC` [Compound 195, N-(3,4-dimethoxyphenyl)-3-(7-methyl-1H-indol-2-yl)imidazo[1,2-b]pyridazin-6-amine], the IC50 was less than 5000 nM.
In the case of `Cc1cccc2cc(-c3cnc4ccc(N[C@H]5CC[C@H](O)CC5)nn34)[nH]c12` [Compound 196, trans-4-(3-(7-methyl-1H-indol-2-yl)imidazo[1,2-b]pyridazin-6-ylamino)cyclohexanol] it was 100 to 500 nM; in that of `COc1ccc(Nc2ccc3ncc(-c4cc5cc(OC)c(OC)cc5[nH]4)n3n2)cc1OC` [Compound 197, 3-(5,6-dimethoxy-1H-indol-2-yl)-N-(3,4-dimethoxyphenyl)imidazo[1,2-b]pyridazin-6-amine], 100 to 500 nM.
With `COc1ccc2[nH]c(-c3cnc4ccc(N[C@H]5CC[C@H](OC)CC5)nn34)cc2c1` [Compound 198, trans-3-(5-methoxy-1H-indol-2-yl)-N-(4-methoxycyclohexyl)imidazo[1,2-b]pyridazin-6-amine] the figure was less than 5000 nM; with `COc1cccc2cc(-c3cnc4ccc(N[C@H]5CC[C@H](OC)CC5)nn34)[nH]c12` [Compound 199, trans-3-(7-methoxy-1H-indol-2-yl)-N-(4-methoxycyclohexyl)imidazo[1,2-b]pyridazin-6-amine], less than 5000 nM; with `COc1cccc2cc(-c3cnc4ccc(N[C@H]5CC[C@H](OC)CC5)nn34)sc12` [Compound 200, trans-3-(7-methoxybenzo[b]thiophen-2-yl)-N-(4-methoxycyclohexyl)imidazo[1,2-b]pyridazin-6-amine], 500 to 1000 nM.
The compound `COc1cc2cc(-c3cnc4ccc(N[C@H]5CC[C@H](OC)CC5)nn34)sc2cc1OC` [Compound 201, trans-3-(5,6-dimethoxybenzo[b]thiophen-2-yl)-N-(4-methoxycyclohexyl)imidazo[1,2-b]pyridazin-6-amine] yielded an IC50 of 100 to 500 nM.
With `COc1ccc(Nc2ccc3ncc(-c4cc5cccc(C)c5s4)n3n2)cc1OC` [Compound 202, N-(3,4-dimethoxyphenyl)-3-(7-methylbenzo[b]thiophen-2-yl)imidazo[1,2-b]pyridazin-6-amine] the figure was less than 5000 nM; with `Cc1cccc2cc(-c3cnc4ccc(N[C@H]5CC[C@H](O)CC5)nn34)sc12` [Compound 203, trans-4-(3-(7-methylbenzo[b]thiophen-2-yl)imidazo[1,2-b]pyridazin-6-ylamino)cyclohexanol], 100 to 500 nM.
With `COc1ccc(Nc2ccc3ncc(-c4cc5cccnc5s4)n3n2)cc1OC` [Compound 204, N-(3,4-dimethoxyphenyl)-3-(thieno[2,3-b]pyridin-2-yl)imidazo[1,2-b]pyridazin-6-amine] the figure was 100 to 500 nM; with `O[C@H]1CC[C@H](Nc2ccc3ncc(-c4cc5cccnc5s4)n3n2)CC1` [Compound 205, trans-4-(3-(thieno[2,3-b]pyridin-2-yl)imidazo[1,2-b]pyridazin-6-ylamino)cyclohexanol], 100 to 500 nM.
As for `COc1ccc(Nc2ccc3ncc(-c4cc5cnccc5s4)n3n2)cc1OC` [Compound 206, N-(3,4-dimethoxyphenyl)-3-(thieno[3,2-c]pyridin-2-yl)imidazo[1,2-b]pyridazin-6-amine], the concentration for half-maximal inhibition (IC50) is less than 100 nM.
With `O[C@H]1CC[C@H](Nc2ccc3ncc(-c4cc5cnccc5s4)n3n2)CC1` [Compound 207, trans-(3-(thieno[3,2-c]pyridin-2-yl)imidazo[1,2-b]pyridazin-6-ylamino)cyclohexanol] the figure was 100 to 500 nM; with `COc1ccc(Nc2ccc3ncc(-c4cc5ncccc5s4)n3n2)cc1OC` [Compound 208, N-(3,4-dimethoxyphenyl)-3-(thieno[3,2-b]pyridin-2-yl)imidazo[1,2-b]pyridazin-6-amine], less than 5000 nM.
With `O[C@H]1CC[C@H](Nc2ccc3ncc(-c4cc5ncccc5s4)n3n2)CC1` [Compound 209, trans-4-(3-(thieno[3,2-b]pyridin-2-yl)imidazo[1,2-b]pyridazin-6-ylamino)cyclohexanol] the figure was 500 to 1000 nM.
`COc1ccc(Nc2ccc3ncc(-c4cc5cncc(OC)c5s4)n3n2)cc1OC` [Compound 210, N-(3,4-dimethoxyphenyl)-3-(7-methoxythieno[3,2-c]pyridin-2-yl)imidazo[1,2-b]pyridazin-6-amine] displayed an IC50 of less than 5000 nM.
Compound `COc1ccc(Nc2ccc3ncc(-c4cc5cncc(O)c5s4)n3n2)cc1OC` [Compound 211, 2-(6-(3,4-dimethoxyphenylamino)imidazo[1,2-b]pyridazin-3-yl)thieno[3,2-c]pyridin-7-ol] registered an IC50 of less than 5000 nM.
For `COc1ccc(N(C)c2ccc3ncc(-c4cc5cncc(OC)c5s4)n3n2)cc1OC` [Compound 212, N-(3,4-dimethoxyphenyl)-3-(7-methoxythieno[3,2-c]pyridin-2-yl)-N-methylimidazo[1,2-b]pyridazin-6-amine], the IC50 is less than 5000 nM.
